From ChEMBL document CHEMBL1146228, “Stellettins L and M, cytotoxic isomalabaricane-type triterpenes, and sterols from the marine sponge Stelletta tenuis” (J Nat Prod, 2007) come the findings set out here.

Broadly, the IC50 is the point on the concentration scale where inhibition reaches its midpoint. Lower therefore signals higher potency.

Format in all cases: functional, cell-based
Test [1] concerns AGS. Nature of the test: Cytotoxicity against AGS cells after 48 hrs by MTT assay. Particulars: Homo sapiens.
The test system of test [2] is A549. Nature of the test: Cytotoxicity against A549 cells after 48 hrs by MTT assay. Particulars: Homo sapiens, A549, 48 h. (In general: Tetrazolium assays rely on reduction of a dye to a coloured formazan, in cell work by metabolically active cells.)
Test [3] concerns SMMC-7721. Nature of the test: Cytotoxicity against SMMC7721 cells after 48 hrs by MTT assay. Particulars: Homo sapiens, SMMC-7721, 48 h.
For test [4], the system named is HT-29. Nature of the test: Cytotoxicity against HT29 cells after 48 hrs by MTT assay. To be noted: Homo sapiens, HT-29, 48 h.

In the case of `O=c1[nH]cc(F)c(=O)[nH]1` [FLUOROURACIL], the IC50 in test [1] is 370 µM; in test [2], 9.2 µM; in test [3], 51 µM; in test [4], 540 µM.

On to `CC[C@]1(O)C[C@H]2CN(CCc3c([nH]c4ccccc34)[C@@](C(=O)OC)(c3cc4c(cc3OC)N(C=O)[C@H]3[C@@](O)(C(=O)OC)[C@H](OC(C)=O)[C@]5(CC)C=CCN6CC[C@]43[C@@H]65)C2)C1` [VINCRISTINE], for which the IC50 in test [1] was below 0.12 µM; in test [2], 0.36 µM; in test [3], below 0.12 µM; in test [4], 0.21 µM.

Take `CC(/C=C/C=C(C)/C=C/C=C(\C)C(=O)O)=C1/C(=O)C[C@H]2[C@@]3(C)CC[C@H](O)C(C)(C)[C@@H]3CC[C@]12C` [STELLETTIN M]: the IC50 in test [1] stood at 2.1 µM; in test [2] it was 34 µM; in test [3], 90 µM; in test [4], 42 µM.

Consider `CC(/C=C/C=C(\C)C(=O)O)=C\C=C\C(C)=C1\C(=O)C[C@H]2[C@@]3(C)CC[C@H](O)C(C)(C)[C@@H]3CC[C@]12C` [STELLETTIN L], for which the IC50 worked out at 3.9 µM in test [1], 28 µM in test [2], 120 µM in test [3] and 33 µM in test [4].
